The source of these data is paper PMC11124413, “Synthesis, Antibacterial Effects, and Toxicity of Licochalcone C” (Pharmaceuticals, 2024).

Data set [1] relates to Galleria mellonella larvae. The experiment in a line: Systemic toxicity in Galleria mellonella larvae. The format is in vivo. The settings on record: 100% DMSO; after 40 h.
Description: The systemic toxicity assay was performed to evaluate the acute toxic effects of LCC, following the procedures described by Megaw [63]. For the experiment, 10 healthy larvae from G. mellonella were randomly selected for each concentration test, with a weight range between 0.2 g and 0.3 g and without melanization aspects. The larvae were chilled on ice for 20 min and had their prolegs cleaned with 70% ethanol. […] Five microliters of the solution were injected into the hemocoel of each larva through the last left proleg using a 25 µL Hamilton syringe. After the administration, the larvae were incubated at 37 °C and their survival was monitored in selected intervals over 72 h. The larvae unable to move when touched and showing elevated levels of melanization were counted as dead. Experiments were performed in triplicate.
Data set [2] has as its system S. sobrinus (ATCC 33478). Nature of the data set: MIC, broth microdilution with resazurin. The settings on record: ATCC33478; Streptococcus sobrinus; mean of triplicates. The format is cell-based. On the technique in general: Broth dilution looks for growth in wells or tubes with falling amounts of substance.
In data set [3] the test system is S. mutans (ATCC 25175). Nature of the data set: MIC, broth microdilution with resazurin. The settings on record: ATCC25175; Streptococcus mutans; mean of triplicates. The format is cell-based.
Data set [4] concerns S. sanguinis (ATCC 10556). The experiment in a line: MIC, broth microdilution with resazurin. In kind it is cell-based. The settings on record: ATCC10556; Streptococcus sanguinis; mean of triplicates.
The subject of data set [5] is MRSA (ATCC BAA44). The experiment in a line: MIC, broth microdilution with resazurin. The settings on record: Staphylococcus aureus (MRSA); mean of triplicates; read-out: MIC. In kind it is cell-based.
Data set [6] concerns MRSA biofilm. Nature of the data set: Antibiofilm assay (biofilm formation). The format is cell-based, S. aureus. Conditions: MRSA biofilm formation.
Data set [7] has as its system MRSA planktonic cells. Nature of the data set: Checkerboard assay. In kind it is cell-based, S. aureus. The procedure:
(§1) The combinations of LCC with tetracycline and vancomycin were evaluated against MSSA and MRSA, respectively, using a microdilution broth checkerboard assay, according to White and collaborators, adapted with the standard procedure established by the CLSI [51, 54]. The fractional inhibitory concentration (FIC) of the combination between LCC and tetracycline or vancomycin was determined using Mueller–Hinton broth culture medium into 96-well plates, with a final inoculum suspension of 5.0 × 10^5 CFU/mL, incubated at 37 °C for 24 h. After incubation, an aqueous resazurin solution (0.02%) was added to the wells and the FIC values (ratio between the MIC of the drug in combination and the MIC of the drug alone) were determined for each drug (Equations (1) and (2)). The fractional inhibitory concentration index (FICI) was calculated using Equation (3). (1) FICLCC=MIC of drug A in combination/MIC of drug A alone (2) FICD=MIC of drug B in combination/MIC of drug B alone FIC Index (FICI) = FICLCC + FICD(3)
(§2) The combination was classified as synergistic (FICI ≤ 0.5), indifferent (0.5 < FICI < 4), and antagonistic (FICI ≥ 4). The assays were performed in triplicate in independent experiments.

Data set [8] concerns Staphylococcus aureus (ATCC 29213) membrane. The experiment in a line: Membrane disruption assay, fluorescence microscopy with SYTO9 and propidium iodide. The settings on record: S. aureus; LCC at MIC 12.5 µg/mL, 15 min; nisin positive control.
Description: Two fluorescent dyes propidium iodide (PI) and SYTO9 were added, which stain cells with disrupted membranes (in pink) and whole membranes (in blue).
The assay was performed using Staphylococcus aureus (ATCC 29213), an MSSA strain. Bacterial cells were cultivated in solid TSA broth (tryptone soya) at 36 °C and stirred at 200 rpm. […] Cells were stained with the Live/Dead BacLight Kit (Thermo-Scientific® L7012, Carlsbad, CA, USA), which is composed of two nucleic acid dyes: SYTO9, which stains all cells, and propidium iodide, which penetrates cells with damaged membranes [60]. The stained cells were immobilized on agarose-covered slides as described by Martins [61]. Untreated S. aureus cells with intact membranes were used as negative controls, and S. aureus cells exposed to nisin (Sigma-Aldrich® N5764, St. Louis, MO, USA) were used as positive controls for membrane damage [62]. Microscopic analyses were carried out using an Olympus BX-61 microscope, equipped with a monochromatic OrcaFlash-2.8 camera (Hamamatsu, Japan), and the software CellSens Dimension Version 11 (Olympus).
Data set [9] concerns M. tuberculosis (ATCC 27294). Nature of the data set: Antimycobacterial MIC, resazurin microtiter assay. Conditions: ATCC27294; Mycobacterium tuberculosis; mean of triplicates. The format is cell-based. A general note: Resazurin is reduced to fluorescent resorufin, in cell work by metabolically active cells.
In data set [10] the test system is M. avium (ATCC 25291). The experiment in a line: Antimycobacterial MIC, resazurin microtiter assay. In kind it is cell-based. Conditions: ATCC25291; Mycobacterium avium; mean of triplicates.
Data set [11] deals with M. kansasii (ATCC 12478). The experiment in a line: Antimycobacterial MIC, resazurin microtiter assay. The format is cell-based. Conditions: ATCC12478; Mycobacterium kansasii; mean of triplicates.
The test system of data set [12] is E. faecalis (ATCC 1299). The experiment in a line: MIC, broth microdilution with resazurin. The settings on record: ATCC1299; Enterococcus faecalis; mean of triplicates. In kind it is cell-based.
Data set [13] relates to MSSA (ATCC 6538). Nature of the data set: MIC, broth microdilution with resazurin. The settings on record: Staphylococcus aureus (MSSA); mean of triplicates; read-out: MIC. In kind it is cell-based.
Data set [14] has as its system Escherichia coli (ATCC 25922). Nature of the data set: MIC, broth microdilution with resazurin. In kind it is cell-based. Conditions: ATCC25922, mean of triplicates, read-out: MIC.
The subject of data set [15] is S. epidermidis (ATCC 14990). Nature of the data set: MIC, broth microdilution with resazurin. In kind it is cell-based. Conditions: ATCC14990; Staphylococcus epidermidis; mean of triplicates.
The test system of data set [16] is H. pylori (ATCC 43526). The experiment in a line: MIC, broth microdilution with resazurin. The format is cell-based. Conditions: ATCC43526; Helicobacter pylori; mean of triplicates; read-out: MIC.
In data set [17] the test system is K. pneumoniae (ATCC 23883). Nature of the data set: MIC, broth microdilution with resazurin. The settings on record: ATCC23883; Klebsiella pneumoniae; mean of triplicates; read-out: MIC. The format is cell-based.
Data set [18] has as its system S. pneumoniae (ATCC 6305). The experiment in a line: MIC, broth microdilution with resazurin. In kind it is cell-based. The settings on record: ATCC6305; Streptococcus pneumoniae; mean of triplicates.
Data set [19] relates to MSSA biofilm. The experiment in a line: Antibiofilm assay (biofilm formation). The format is cell-based, S. aureus. The settings on record: MSSA biofilm formation.
In data set [20] the test system is P. aeruginosa (ATCC 27853). The experiment in a line: MIC, broth microdilution with resazurin. Conditions: ATCC27853; Pseudomonas aeruginosa; mean of triplicates; read-out: MIC. In kind it is cell-based.
In data set [21] the test system is MSSA planktonic cells. The experiment in a line: Checkerboard assay. In kind it is cell-based, S. aureus. The protocol:
as §1, §2

In data set [22] the test system is Gram-negative strains. Set-up: method as in PMID 20160051. The settings on record: without efflux pump inhibitor (EPI); cited from earlier work.

≈ marks a conversion by molar mass, not a printed value. Where “and” joins values, the source holds several entries; their conditions need not be identical. Equal entries are not always repeated. Positions of bridges follow the written chain, without caps; N, C: chain ends. Non-standard residues stand in square brackets, D forms with d. No end group written: not given here. Abu = CC[C@H](N)C(=O)O; Dhb = C/C=C(\N)C(=O)O; Dha = C=C(N)C(=O)O

Usually MIC stands for the lowest concentration that inhibits growth of the organism.

In the case of `C[S+](C)[O-]` [DMSO, dimethyl sulfoxide, reference compound], the lethality to larvae result in data set [1] is reported as “total lethality”.

As for `[H]/N=C(\N/C(=N/[H])NCCCCCCNC(=N)NC(=N)Nc1ccc(Cl)cc1)Nc1ccc(Cl)cc1` [Chlorhexidine, chlorhexidine, reference compound], the MIC in data set [2] amounted to 3.6 µg/mL (≈ 7.12 µM); in [3] it was 0.4 µg/mL (≈ 0.791 µM); in data set [4] it was 1.8 µg/mL (≈ 3.56 µM).

Turning to `CN[C@H](CC(C)C)C(=O)N[C@H]1C(=O)N[C@@H](CC(N)=O)C(=O)N[C@H]2C(=O)N[C@H]3C(=O)N[C@H](C(=O)N[C@H](C(=O)O)c4cc(O)cc(O)c4-c4cc3ccc4O)[C@H](O)c3ccc(c(Cl)c3)Oc3cc2cc(c3O[C@@H]2O[C@H](CO)[C@@H](O)[C@H](O)[C@H]2O[C@H]2C[C@](C)(N)[C@H](O)[C@H](C)O2)Oc2ccc(cc2Cl)[C@H]1O` [Vancomycin, vancomycin, reference compound], the MIC was determined as 0.73 µg/mL (≈ 0.504 µM) in data set [5] and 0.73 µg/mL in data set [7] (Staphylococcus aureus, read-out: MIC Alone). The “MBIC50 (minimum biofilm inhibitory concentration)” value in data set [6] is 0.737 µg/mL and 0.7375 µg/mL. For the same compound, the “MIC Combined” value in data set [7] (checkerboard, in combination LCC + VAN) worked out at 0.36 µg/mL. In addition, the “FICD (fractional inhibitory concentration for the associated drug)” value in [7] (combination LCC + VAN) came out at 0.5.

For “nisin (I[Dhb]AI[Dha]LC[Abu]PGCK[Abu]GALMGCNMK[Abu]A[Abu]CHCSIHV[Dha]K; thioether 8-11, 13-19, 23-26, 25-28, 3-7; UniProt P13068 24-57, looked up) [reference compound]”, the “percentage of cells with permeabilized membrane (stained with both fluorophores)” value in data set [8] is on record as 95%.

Take `NNC(=O)c1ccncc1` [Isoniazid, reference compound]: the MIC is 0.5 µg/mL (≈ 3.65 µM) in data set [9], more than 1 µg/mL in [10] and 1 µg/mL (≈ 7.29 µM) in [11].

With `CN(C)[C@@H]1C(O)=C(C(N)=O)C(=O)[C@@]2(O)C(O)=C3C(=O)c4c(O)cccc4[C@@](C)(O)[C@H]3C[C@@H]12` [Tetracycline, tetracycline, reference compound], the MIC was 3.3 µg/mL (≈ 7.43 µM) in data set [12]; 0.09 µg/mL (≈ 0.203 µM) in [13]; 0.73 µg/mL (≈ 1.64 µM) in [14]; more than 5.9 µg/mL in data set [15]; 1.47 µg/mL (≈ 3.31 µM) in data set [16]; 1.47 µg/mL (≈ 3.31 µM) in data set [17]. Besides, the MIC in data set [18] stood at 0.4 µg/mL (≈ 0.9 µM); in data set [20], 5.9 µg/mL (≈ 13.3 µM); in [21] (Staphylococcus aureus, checkerboard, drug alone) it was 0.09 µg/mL. Further, the “MBIC50 (minimum biofilm inhibitory concentration)” value in data set [19] was 0.046 µg/mL. Also, the “MIC Combined” value in data set [21] (checkerboard, in combination LCC + TC) came out at 0.18 µg/mL. In addition, the “FICD (fractional inhibitory concentration for the associated drug)” value in data set [21] (combination LCC + TC) is 2.0.

On to `CC(C)=CCc1c(O)ccc(C(=O)/C=C/c2ccc(O)cc2)c1O` [IBC, isobavachalcone], for which the antibacterial activity entry in data set [22] is listed as “weakly active”.
